# Measurements taken from PMC6768323, “Adverse Maternal, Fetal, and Postnatal Effects of Hexafluoropropylene Oxide Dimer Acid (GenX) from Oral Gestational Exposure in Sprague-Dawley Rats” (Environmental Health Perspectives, 2019).
# Tests used:
# estrogen (ER) receptor = assay: ER transcriptional activation, T47D-KBluc cells; type: cell-based; details: 100 pM to 10 μM
# Description: (§1) HFPO-DA was assessed for agonism and antagonism of transcriptional activation for estrogen (ER), androgen (AR), and glucocorticoid receptors (GR). Method details for in vitro transactivation assays for ER ([Wilson et al. 2004a]), AR ([Hartig et al. 2002], [2007]), and GR ([Conley et al. 2017]; [Medlock Kakaley et al. 2018]) have been previously reported. Briefly, for ER activity we utilized the stably transfected T47D-KBluc cell line [publicly available via American Type Culture Collection (ATCC); CRL-2865] according to protocols provided by ATCC with the modification of Dulbecco’s Modified Eagle Media (DMEM) as the cell culture media instead of Roswell Park Memorial Institute (RPMI) media. […] All assays were run in 96-well plates and luminescence was detected using a BMG Fluostar Omega luminometer (BMG Labtech) following 24-h exposure. […] Cellular cytotoxicity across the dosing range was determined for CV-1 cells utilizing the 3-(4,5-dimethylthiazol-2-yl)-2,5-diphenyltetrazolium bromide (MTT) dye ([Mosmann 1983]). HFPO-DA was analyzed using n=2–3 biological replicate assay plates (i.e., unique cell passages) with four technical replicates per treatment per plate. […]
# chimp AR = biological target: T1, chimp AR (Pan troglodytes, UniProt O97775); assay: AR transcriptional activation, CV-1 cells; type: cell-based
# T1 construct: expressed in transfected cells; host or cells: CV-1 cells (ATCC CCL-70), adenoviral transduction
# T1 sequence (O97775 1-911): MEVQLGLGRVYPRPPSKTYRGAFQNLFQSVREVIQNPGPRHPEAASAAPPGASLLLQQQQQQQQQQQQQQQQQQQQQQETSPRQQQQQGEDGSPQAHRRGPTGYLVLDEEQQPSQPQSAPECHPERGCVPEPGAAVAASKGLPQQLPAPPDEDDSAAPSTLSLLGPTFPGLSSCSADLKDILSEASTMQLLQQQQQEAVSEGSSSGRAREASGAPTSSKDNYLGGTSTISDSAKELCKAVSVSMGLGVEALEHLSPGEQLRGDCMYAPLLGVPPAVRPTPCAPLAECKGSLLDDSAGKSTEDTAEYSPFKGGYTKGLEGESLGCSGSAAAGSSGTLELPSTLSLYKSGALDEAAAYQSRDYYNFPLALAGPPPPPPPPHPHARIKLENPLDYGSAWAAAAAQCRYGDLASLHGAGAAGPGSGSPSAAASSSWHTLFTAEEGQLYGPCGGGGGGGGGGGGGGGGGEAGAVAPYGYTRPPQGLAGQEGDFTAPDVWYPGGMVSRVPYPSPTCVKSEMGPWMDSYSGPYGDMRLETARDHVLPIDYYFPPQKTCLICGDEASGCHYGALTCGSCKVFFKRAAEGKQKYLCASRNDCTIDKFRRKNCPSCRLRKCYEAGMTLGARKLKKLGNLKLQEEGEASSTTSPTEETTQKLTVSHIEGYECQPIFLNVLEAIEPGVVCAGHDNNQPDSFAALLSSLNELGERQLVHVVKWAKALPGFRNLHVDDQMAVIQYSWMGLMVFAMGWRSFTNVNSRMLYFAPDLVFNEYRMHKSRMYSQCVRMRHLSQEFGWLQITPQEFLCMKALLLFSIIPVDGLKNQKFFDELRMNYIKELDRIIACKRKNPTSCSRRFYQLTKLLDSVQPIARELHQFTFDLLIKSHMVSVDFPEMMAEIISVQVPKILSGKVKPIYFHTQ
# Description: as §1
# [1] = female rat, oral 10-30 mg/kg; ref Gannon et al. 2016; cited from earlier work
# [2] = design: method as in DuPont 2017; details: ref DuPont 2017; cited from earlier work
smiles,measurement,setting,value
"O=C(O)C(F)(OC(F)(F)C(F)(F)C(F)(F)F)C(F)(F)F (centres unmarked) [HFPO-DA, Hexafluoropropylene oxide dimer acid]",estrogenic activity (agonism or antagonism),estrogen (ER) receptor,did not display any estrogenic activity
same,androgen receptor agonism,chimp AR; 100 pM to 100 μM,no androgen or glucocorticoid receptor agonism
same,"androgen receptor antagonism, reduction in luciferase expression","chimp AR; 100 μM, versus 100 pM DHT",42±1%
same,half-life,[1],~5 h
same,highest detected plasma concentration from a worker,[2],0.169 µg/mL
